Measured values reported in patent US20240083885A1, “COMPOSITIONS AND METHODS FOR INHIBITING M PRO PROTEASE ACTIVITY AND FOR PREVENTING AND TREATING SARS-COV-2 INFECTION” (priority 2020, published 2024).
Where two headings read alike, the source gives them in different places.

What was measured:
[1] = target: SARS-CoV-2 M^pro (Severe acute respiratory syndrome coronavirus 2 (2019-nCoV) (SARS-CoV-2), UniProt P0DTD1); assay: biochemical
[2] = tested on: SARS-CoV-2; assay: microbe, parasite or virus in culture; type: cell-based; details: for EC50: Severe acute respiratory syndrome coronavirus 2, Vero C1008
[3] = in vitro; details: African green monkey
[4] = tested on: Vero E6 cells; assay: Cytotoxicity in Vero E6 cells (neutral red uptake); details: read-out: CC50 in Vero E6 cells
[5] = read-out: SARS-COV-2 main protease enzymatic inhibition IC50
[6] = read-out: SARS-COV-2 antiviral activity using immunofluorescence assay EC50
[7] = read-out: IC50 against SARS-CoV-2 M^pro
[8] = SARS-COV-2 main protease enzymatic inhibition IC50
[9] = Vero E6 cells, immunofluorescence assay, read-out: SARS-CoV-2 antiviral assay EC50
[10] = read-out: antiviral EC50 against SARS-CoV-2 in Vero E6 cells

C[C@H](NC(=O)C(c1cccnc1)N(C(=O)c1ccco1)c1ccc(C2CCCCC2)cc1)c1ccccc1 (stereo partly shown) [Jun8-66-1]
IC50 [1, 5]: 0.51 µM

C[C@H](NC(=O)C(c1cccnc1)N(C(=O)c1ccco1)c1ccc(-c2ccccc2)cc1)c1ccccc1 (single isomer, unassigned) [Jun8-76-3B]
EC50 [2, 6]: 2.97 µM
EC50 ([1]; SARS-COV-2 main protease enzymatic inhibition (separated diastereomers, printed as EC50)): 1.35 µM

C[C@H](NC(=O)[C@H](c1cccnc1)N(C(=O)C(Cl)Cl)c1ccc(-c2ccccc2)cc1)c1ccccc1 [Jun9-62-2S, N-([1,1′-biphenyl]-4-yl)-2,2-dichloro-N-((S)-2-oxo-2-(((S)-1-phenylethyl)amino)-1-(pyridin-3-yl)ethyl)acetamide]
IC50 ([1]; IC50 against SARS-CoV-2 M^pro): > 20 µM

C[C@H](NC(=O)C(c1cccnc1)N(C(=O)C(Cl)(Cl)Br)c1ccc(-c2ccccc2)cc1)c1ccccc1 (stereo partly drawn) [Jun9-89-3, N-([1,1′-biphenyl]-4-yl)-2-bromo-2,2-dichloro-N-(2-oxo-2-(((S)-1-phenylethyl)amino)-1-(pyridin-3-yl)ethyl)acetamide]
CC50 at 5 days ([3]; CC50 in Vero E6 cells): 32.4 µM
IC50 [1, 7]: 1.2 µM

C[C@H](NC(=O)[C@H](c1cccnc1)N(C(=O)C(Cl)Cl)c1ccc(-c2ccccc2)cc1)c1ccc(Br)cc1 [Jun9-90-3S, N-([1,1′-biphenyl]-4-yl)-N-((S)-2-(((S)-1-(4-bromophenyl)ethyl)amino)-2-oxo-1-(pyridin-3-yl)ethyl)-2,2-dichloroacetamide]
IC50 ([1]; IC50 against SARS-CoV-2 M^pro): > 20 µM

CC(C)(C)c1ccc(N(C(=O)c2ccco2)C(C(=O)NCn2nnc3ccccc32)c2cccnc2)cc1 (stereo not shown) [Jun8-74-1]
IC50 [1, 5]: 8.13 µM

C[C@H](NC(=O)[C@H](c1cccnc1)N(C(=O)C(Br)Br)c1ccc(-c2ccccc2)cc1)c1ccccc1 [Jun9-89-2S, N-([1,1′-biphenyl]-4-yl)-2,2-dibromo-N-((S)-2-oxo-2-(((S)-1-phenylethyl)amino)-1-(pyridin-3-yl)ethyl)acetamide]
CC50 at 5 days ([3]; CC50 in Vero E6 cells): 4.57 µM
IC50 ([1]; IC50 against SARS-CoV-2 M^pro): 2.44 µM

C[C@H](NC(=O)[C@H](c1cccnc1)N(C(=O)C(Cl)(Br)Br)c1ccc(-c2ccccc2)cc1)c1ccccc1 [Jun9-89-4S, N-([1,1′-biphenyl]-4-yl)-2,2-dibromo-2-chloro-N-((S)-2-oxo-2-(((S)-1-phenylethyl)amino)-1-(pyridin-3-yl)ethyl)acetamide]
IC50 [1, 7]: 9.04 µM

O=C(NCC(c1ccccc1)c1ccccc1)C(c1cccnc1)N(C(=O)c1ccco1)c1ccc(-c2ccccc2)cc1 (stereo not shown) [Compound 39]
CC50 [4]: > 100 µM
IC50 ([1]; IC50 against SARS-CoV-2 M^pro): < 5 µM

C[C@H](NC(=O)C(c1cccnc1)N(C(=O)c1ccco1)c1ccc(-c2cnn(C)c2)cc1)c1ccccc1 (stereo partly shown) [Jun8-91-6]
IC50 [1, 8]: 37.3 µM

C[C@H](NC(=O)C(c1cccnc1)N(C(=O)c1ccco1)c1ccc(-c2ccco2)cc1)c1ccccc1 (stereo partly shown) [Jun8-91-5]
IC50 [1, 5]: 2.54 µM

C[C@H](NC(=O)C(c1cccnc1)N(C(=O)c1ccco1)c1ccc(N2CCCCC2)cc1)c1ccccc1 (stereo partly shown) [Jun8-97-1]
IC50 [1, 5]: 5.46 µM

C[C@H](NC(=O)C(c1cccnc1)N(C(=O)c1ccno1)c1ccc(-c2ccccc2)cc1)c1ccccc1 (stereo partly shown) [Compound 25]
CC50 [4]: > 100 µM
IC50 [1, 7]: 2.47 ± 0.27 µM

C[C@H](NC(=O)C(c1cnccn1)N(C(=O)c1ccco1)c1ccc(-c2ccccc2)cc1)c1ccccc1 (stereo partly shown) [Jun9-4-4]
Selectivity index SI CC50/EC50 [2]: >243.9
EC50 [2, 9]: 0.82 ± 0.56 µM
EC50 [2, 6]: 1.43 µM
EC50 [2, 10]: 0.82 to 4.54 µM
CC50 at 5 days ([3]; Vero E6 Cytotoxicity CC50 (μM)): > 200 µM
CC50 [4]: > 100 µM
IC50 [1, 7]: 0.28 ± 0.07 µM

O=C(NC1CCCCC1)C(c1cccnc1)N(C(=O)c1ccco1)c1ccc(-c2ccccc2)cc1 (stereo not shown) [Jun9-3-3]
IC50 [1, 5]: 2.68 µM

C[C@H](NC(=O)C(c1cccnc1)N(C(=O)c1ccco1)c1ccc(OC(C)(C)C)cc1)c1ccccc1 (stereo partly shown) [Jun9-5-4]
IC50 [1, 5]: 21.9 µM

C[C@H](NC(=O)C(c1cccnc1)N(C(=O)c1ccco1)c1ccc(-c2cccs2)cc1)c1ccccc1 (stereo partly shown) [Jun8-91-4]
IC50 [1, 8]: 14.6 µM

CC(C)(C)c1ccc(N(C(=O)c2ccco2)C(C(=O)Nc2ccc(F)cc2)c2cccnc2)cc1 (stereo not shown) [Jun9-88-3]
IC50 [1, 5]: 7.81 µM

C[C@H](NC(=O)C(c1cccnc1)N(C(=O)c1cnco1)c1ccc(-c2ccccc2)cc1)c1ccccc1 (stereo partly shown) [Jun8-92-2]
IC50 [1, 5]: 4.99 µM

C[C@H](NC(=O)[C@H](c1cccnc1)N(C(=O)C(Br)(Br)Br)c1ccc(-c2ccccc2)cc1)c1ccccc1 [Jun9-88-6S, N-([1,1′-biphenyl]-4-yl)-2,2,2-tribromo-N-((S)-2-oxo-2-(((S)-1-phenylethyl)amino)-1-(pyridin-3-yl)ethyl)acetamide]
CC50 at 5 days ([3]; CC50 in Vero E6 cells): 5.99 µM
IC50 [1, 7]: 7.16 µM

C[C@H](NC(=O)C(c1cnccn1)N(C(=O)c1c[nH]cn1)c1ccc(-c2ccccc2)cc1)c1ccccc1 (stereo partly shown) [Jun9-5-2]
Selectivity index SI CC50/EC50 [2]: 32.6
EC50 [2, 9]: 4.54 ± 0.69 µM
EC50 [2, 6]: 9.89 µM
EC50 [2, 10]: 0.82 to 4.54 µM
CC50 at 5 days ([3]; Vero E6 Cytotoxicity CC50 (μM)): 148 ± 13.9 µM
CC50 [4]: > 100 µM
IC50 [1, 7]: 0.67 ± 0.15 µM

C[C@H](NC(=O)C(c1cccnc1)N(C(=O)c1ccco1)c1ccc(Cc2ccccc2)cc1)c1ccccc1 (stereo partly shown) [Jun8-92-4]
IC50 [1, 5]: 35.1 µM
